Residues, ends and D or L forms follow the SMILES beside them.
Columns and labels:
human NMUR1 receptor = molecular target: T1, human NMUR1 receptor (Homo sapiens, UniProt Q9HB89); test: Radioligand binding competition assay (RLB), human NMUR1 receptor binding (SPA, [125I]-Neuromedin U-25); details: CHO-K1 hNMUR1 cell membranes, 4 hours at RT
T1 construct: host or cells: CHO-K1
T1 sequence (Q9HB89 24-426 limits assumed): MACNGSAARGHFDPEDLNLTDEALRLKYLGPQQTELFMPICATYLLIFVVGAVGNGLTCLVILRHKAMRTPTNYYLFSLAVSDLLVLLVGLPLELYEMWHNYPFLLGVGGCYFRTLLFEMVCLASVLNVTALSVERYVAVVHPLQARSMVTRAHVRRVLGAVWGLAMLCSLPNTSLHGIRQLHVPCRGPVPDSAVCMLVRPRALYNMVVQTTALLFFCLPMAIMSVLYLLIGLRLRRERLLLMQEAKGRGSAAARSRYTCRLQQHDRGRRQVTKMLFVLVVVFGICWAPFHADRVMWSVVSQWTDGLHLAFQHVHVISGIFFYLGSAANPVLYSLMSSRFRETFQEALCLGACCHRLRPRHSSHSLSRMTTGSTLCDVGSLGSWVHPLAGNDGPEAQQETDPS
From the text: Example 2: Radioligand Binding Competition Assay (RLB) Human NMUR1 Receptor Binding 1) Membranes The test is based on membranes prepared from a human NMUR1/Apoaequorin Stable Cell Line (Creative Biogene, Cat. No. CSC-RG1308). Cell Line Description: CHO-NMUR1 cell line is clonally-derived from a CHO-K1 cell line, which has been transfected with a bicistronic expression plasmid containing the sequence coding for the human neuromedin U receptor 1 (NM_006056.4, 180 to 1391). Mosaic-ID: CL16550614 Membrane preparation: Cells were broken by nitrogen cavitation (900 psi, 1 hour). Intact cells were removed by centrifugation (400 rcf, 10 minutes, 4° C.) before the crude membrane fraction was collected by ultracentrifugation (20.000 rcf, 1 hour, 4° C.). 2) Human NMUR1 Receptor Binding Assay (Radioligand: [125l]-Neuromedin U-25) In this Scintillation Proximity Assay (SPA) design, the membranes immobilize directly to the PVT-WGA-PEI type A beads (polyethyleneimine treated polyvinyltoluene beads coupled to wheatgerm agglutinin, Perkin Elmer) via interactions of wheat germ agglutinate and glycosylated membrane structures. Thereby the radioactively la-belled ligand, bound to NMUR1 receptors on the membrane, comes in close proximity to the solid scintillator of the PVT bead. Radioactive human neuromedin U-25 then stimulates the scintillant to emit light. In contrast, radioligand not bound to the receptor is too distant from the bead to elicit a signal. For the Scintillation Proximity Assay the CHO-K1 hNMUR1 cell membranes and SPA-beads are diluted to concentrations, which assure a robust signal to background ratio. The SPA incubation buffer consists of 25 mM Hepes (pH=7.0), 5 mM MgCl2, 1 mM CaCl2, 10 ug/mL Saponine and 0.1% bovine serum albumin and is used for all dilutions. Final assay setup in 96-well plate: 20 μL of 10× test compound dilutions+40 μL of 5× [125l]-Neuromedin U-25 (1× approx. 30 pM; 2000 μCi/mmol (μCi=microcurie))+60 μL membrane dilution (approx. 1.0 μg membrane protein)+80 μL SPA bead dilution (250 μg). The assay is incubated for 4 hours at RT, including controls for specific binding where no displacer is added and non-specific binding by adding unlabeled hNMU-25 at 100 nM. Bound radioactivity is determined by scintillation counting (MicroBeta Trilux 1450, Perkin Elmer, detection of 125I decay). […] The system assumes one binding site with no relevant radioligand depletion (<10%) and that the binding is reversible and at equilibrium. [formula] [formula]

human NMUR2 receptor = human NMUR2 receptor (Homo sapiens, UniProt Q9GZQ4); test: IP1 Gq HTRF assay, activation of human NMUR2 in buffer; assay type: cell-based; set-up: expressed in transfected cells; host or cells: CHO-K1; details: for EC50: CHO-K1 cells expressing human NMUR2, stimulation buffer with 0.1% BSA, read-out: EC50 (hNMUR2) buffer; for EC50 (hNMUR1)/EC50 (hNMUR2): selectivity for NMUR2 over NMUR1 from IP1 assay in buffer (Example 3)
How it was run: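 CHO-K1 cells stably expressing human NMUR1 or NMUR2, seeded 24 h before assay, stimulated with peptide agonists (8-point dose-response, 1% DMSO final) in HEPES/HBSS buffer with 50 mM LiCl and 0.1% BSA, pH 7.4, 1 h at 37 °C. IP1 accumulation read by HTRF competition (665/620 nm); EC50 from 4-parameter sigmoidal fit.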

Chain of human NMUR2 receptor (Q9GZQ4 whole entry): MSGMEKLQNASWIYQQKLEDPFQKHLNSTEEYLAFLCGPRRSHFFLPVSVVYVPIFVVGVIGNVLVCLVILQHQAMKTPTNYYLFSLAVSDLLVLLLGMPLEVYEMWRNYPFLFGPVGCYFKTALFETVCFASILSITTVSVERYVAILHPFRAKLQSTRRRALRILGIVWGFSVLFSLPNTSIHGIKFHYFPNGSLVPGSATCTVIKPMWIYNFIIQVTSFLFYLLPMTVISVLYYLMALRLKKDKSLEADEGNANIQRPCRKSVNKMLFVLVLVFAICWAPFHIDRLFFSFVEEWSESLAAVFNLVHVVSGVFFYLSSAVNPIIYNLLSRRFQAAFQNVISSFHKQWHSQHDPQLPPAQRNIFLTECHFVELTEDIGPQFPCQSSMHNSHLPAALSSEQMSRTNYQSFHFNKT

`CCCC[C@H](NC(=O)[C@H](CC(C)C)N(C)C(=O)[C@H](Cc1ccccc1)NC(=O)[C@H](Cc1ccc(O)cc1)NC(=O)CN1CCN(CCNC(=O)CN(C)C(=O)CN(C)C(=O)CN(C)C(=O)CN(C)C(=O)CN(C)C(=O)CN(C)C(=O)CN(C)C(=O)CN(C)C(=O)CN(C)C(=O)CN(C)C(=O)CN(C)C(=O)CN(C)C(=O)CN(C)C(=O)CN(C)C(=O)CN(C)C(=O)CC[C@H](NC(=O)CC[C@H](NC(=O)CC[C@H](NC(=O)CCCCCCCCCCCCCCCCC(=O)O)C(=O)O)C(=O)O)C(=O)O)CC1)C(=O)N[C@@H](CCN)C(=O)N1CCC[C@H]1C(=O)N[C@@H](CCCNC(=N)N)C(=O)NCC(N)=O` [Compound 26, C18DA-gGlu3-Sar15-AEPipAc-Tyr-Phe-NMeLeu-Nle-Dbu-Pro-Arg-Gly-NH2] (HELM PEPTIDE1{[O=C(O)CCCCCCCCCCCCCCCCC(=O)[*:2]].[gGlu].[gGlu].[gGlu].[Sar].[Sar].[Sar].[Sar].[Sar].[Sar].[Sar].[Sar].[Sar].[Sar].[Sar].[Sar].[Sar].[Sar].[Sar].[O=C(CN1CCN(CCN[*:1])CC1)[*:2]].Y.F.[meL].[Nle].[Dab].P.R.G.[am]}$$$$V2.0) was tested, and the Ki (human NMUR1 receptor) was over 10000 nM and the EC50 (human NMUR2 receptor) was 1.5 nM.

In the case of `CCCC[C@H](NC(=O)[C@H](CC(C)C)N(C)C(=O)[C@H](Cc1ccccc1)NC(=O)[C@H](Cc1ccc(O)cc1)NC(=O)CN1CCN(CCNC(=O)CN(C)C(=O)CN(C)C(=O)CN(C)C(=O)CN(C)C(=O)CN(C)C(=O)CN(C)C(=O)CN(C)C(=O)CN(C)C(=O)CN(C)C(=O)CN(C)C(=O)CN(C)C(=O)CN(C)C(=O)CN(C)C(=O)CN(C)C(=O)CN(C)C(=O)CC[C@H](NC(=O)CC[C@H](NC(=O)CC[C@H](NC(=O)CCCCCCCCCCCCCCCCCCC(=O)O)C(=O)O)C(=O)O)C(=O)O)CC1)C(=O)N[C@@H](CCCNC(=N)N)C(=O)N(C)[C@@H](C)C(=O)N[C@@H](CCCNC(=N)N)C(=O)NCC(N)=O` [Compound 10, C20DA-gGlu3-Sar15-AEPipAc-Tyr-Phe-NMeLeu-Nle-Arg-NMeAla-Arg-Gly-NH2] (HELM PEPTIDE1{[O=C(O)CCCCCCCCCCCCCCCCCCC(=O)[*:2]].[gGlu].[gGlu].[gGlu].[Sar].[Sar].[Sar].[Sar].[Sar].[Sar].[Sar].[Sar].[Sar].[Sar].[Sar].[Sar].[Sar].[Sar].[Sar].[O=C(CN1CCN(CCN[*:1])CC1)[*:2]].Y.F.[meL].[Nle].R.[meA].R.G.[am]}$$$$V2.0), the Ki (human NMUR1 receptor) is reported as over 10000 nM and the EC50 (human NMUR2 receptor) is reported as 4.1 nM.

With `CCCC[C@H](NC(=O)[C@H](CC(C)C)N(C)C(=O)[C@H](Cc1ccccc1)NC(=O)[C@H](Cc1ccc(O)cc1)NC(=O)CN1CCN(CCNC(=O)CN(C)C(=O)CN(C)C(=O)CN(C)C(=O)CN(C)C(=O)CN(C)C(=O)CN(C)C(=O)CN(C)C(=O)CN(C)C(=O)CN(C)C(=O)CN(C)C(=O)CN(C)C(=O)CN(C)C(=O)CN(C)C(=O)CN(C)C(=O)CN(C)C(=O)CC[C@H](NC(=O)CC[C@H](NC(=O)CC[C@H](NC(=O)CCCCCCCCCCCCCCCCCCC(=O)O)C(=O)O)C(=O)O)C(=O)O)CC1)C(=O)N[C@@H](CCCN)C(=O)N1CCC[C@H]1C(=O)N[C@@H](CCCNC(=N)N)C(=O)NCC(N)=O` [Compound 1, C20DA-gGlu3-Sar15-AEPipAc-Tyr-Phe-NMeLeu-Nle-Orn-Pro-Arg-Gly-NH2] (HELM PEPTIDE1{[O=C(O)CCCCCCCCCCCCCCCCCCC(=O)[*:2]].[gGlu].[gGlu].[gGlu].[Sar].[Sar].[Sar].[Sar].[Sar].[Sar].[Sar].[Sar].[Sar].[Sar].[Sar].[Sar].[Sar].[Sar].[Sar].[O=C(CN1CCN(CCN[*:1])CC1)[*:2]].Y.F.[meL].[Nle].[Orn].P.R.G.[am]}$$$$V2.0) the Ki (human NMUR1 receptor) was over 10000 nM, the EC50 (human NMUR2 receptor) was 1.4 nM and the “EC50 (hNMUR1)/EC50 (hNMUR2)” value (human NMUR2 receptor) was 635.

`CCCC[C@H](NC(=O)[C@H](CC(C)C)N(C)C(=O)[C@H](Cc1ccccc1)NC(=O)[C@H](Cc1ccc(O)cc1)NC(=O)CN1CCN(CCNC(=O)CN(C)C(=O)CN(C)C(=O)CN(C)C(=O)CN(C)C(=O)CN(C)C(=O)CN(C)C(=O)CN(C)C(=O)CN(C)C(=O)CN(C)C(=O)CN(C)C(=O)CN(C)C(=O)CN(C)C(=O)CN(C)C(=O)CN(C)C(=O)CN(C)C(=O)CC[C@H](NC(=O)CC[C@H](NC(=O)CC[C@H](NC(=O)CCCCCCCCCCCCCCCCC(=O)O)C(=O)O)C(=O)O)C(=O)O)CC1)C(=O)N[C@@H](CCCNC(=N)N)C(=O)N1CCC[C@H]1C(=O)N[C@@H](CCCNC(=N)N)C(=O)NCC(N)=O` [Compound 7, C18DA-gGlu3-Sar15-AEPipAc-Tyr-Phe-NMeLeu-Nle-Arg-Pro-Arg-Gly-NH2] (HELM PEPTIDE1{[O=C(O)CCCCCCCCCCCCCCCCC(=O)[*:2]].[gGlu].[gGlu].[gGlu].[Sar].[Sar].[Sar].[Sar].[Sar].[Sar].[Sar].[Sar].[Sar].[Sar].[Sar].[Sar].[Sar].[Sar].[Sar].[O=C(CN1CCN(CCN[*:1])CC1)[*:2]].Y.F.[meL].[Nle].R.P.R.G.[am]}$$$$V2.0) was tested, and the Ki (human NMUR1 receptor) was 3740 nM, the EC50 (human NMUR2 receptor) was 1.2 nM and the “EC50 (hNMUR1)/EC50 (hNMUR2)” value (human NMUR2 receptor) was 208.

`CCCC[C@H](NC(=O)[C@H](CC(C)C)N(C)C(=O)[C@H](Cc1ccccc1)NC(=O)[C@H](Cc1ccc(O)cc1)NC(=O)CN1CCN(CCNC(=O)CN(C)C(=O)CN(C)C(=O)CN(C)C(=O)CN(C)C(=O)CN(C)C(=O)CN(C)C(=O)CN(C)C(=O)CN(C)C(=O)CN(C)C(=O)CN(C)C(=O)CN(C)C(=O)CN(C)C(=O)CC[C@H](NC(=O)CC[C@H](NC(=O)CC[C@H](NC(=O)CCCCCCCCCCCCCCCCC(=O)O)C(=O)O)C(=O)O)C(=O)O)CC1)C(=O)N[C@@H](CCN)C(=O)N1CCC[C@H]1C(=O)N[C@@H](CCCNC(=N)N)C(=O)NCC(N)=O` [Compound 27, C18DA-gGlu3-Sar12-AEPipAc-Tyr-Phe-NMeLeu-Nle-Dbu-Pro-Arg-Gly-NH2] showed a Ki (human NMUR1 receptor) of over 10000 nM and an EC50 (human NMUR2 receptor) of 1.2 nM.

Work on `CCCC[C@H](NC(=O)[C@H](CC(C)C)N(C)C(=O)[C@H](Cc1ccccc1)NC(=O)[C@H](Cc1ccc(O)cc1)NC(=O)CN1CCN(CCNC(=O)CN(C)C(=O)CN(C)C(=O)CN(C)C(=O)CN(C)C(=O)CN(C)C(=O)CN(C)C(=O)CN(C)C(=O)CN(C)C(=O)CN(C)C(=O)CN(C)C(=O)CN(C)C(=O)CN(C)C(=O)CN(C)C(=O)CN(C)C(=O)CN(C)C(=O)CC[C@H](NC(=O)CC[C@H](NC(=O)CC[C@H](NC(=O)CCCCCCCCCCCCCCCCCCC(=O)O)C(=O)O)C(=O)O)C(=O)O)CC1)C(=O)N[C@@H](CCN)C(=O)N1CCC[C@H]1C(=O)N[C@@H](CCCNC(=N)N)C(=O)NCC(N)=O` [Compound 42, C20DA-gGlu3-Sar15-AEPipAc-Tyr-Phe-NMeLeu-Nle-Dbu-Pro-Arg-Gly-NH2] (HELM PEPTIDE1{[O=C(O)CCCCCCCCCCCCCCCCCCC(=O)[*:2]].[gGlu].[gGlu].[gGlu].[Sar].[Sar].[Sar].[Sar].[Sar].[Sar].[Sar].[Sar].[Sar].[Sar].[Sar].[Sar].[Sar].[Sar].[Sar].[O=C(CN1CCN(CCN[*:1])CC1)[*:2]].Y.F.[meL].[Nle].[Dab].P.R.G.[am]}$$$$V2.0) yielded a Ki (human NMUR1 receptor) of over 10000 nM and an EC50 (human NMUR2 receptor) of 3.2 nM.

`CCCC[C@H](NC(=O)[C@H](CC(C)C)N(C)C(=O)[C@H](Cc1ccccc1)NC(=O)[C@H](Cc1ccc(O)cc1)NC(=O)CN1CCN(CCNC(=O)CN(C)C(=O)CN(C)C(=O)CN(C)C(=O)CN(C)C(=O)CN(C)C(=O)CN(C)C(=O)CN(C)C(=O)CN(C)C(=O)CN(C)C(=O)CN(C)C(=O)CN(C)C(=O)CN(C)C(=O)CC[C@H](NC(=O)CC[C@H](NC(=O)CC[C@H](NC(=O)CCCCCCCCCCCCCCCCC(=O)O)C(=O)O)C(=O)O)C(=O)O)CC1)C(=O)N[C@@H](CCCNC(=N)N)C(=O)N1CCC[C@H]1C(=O)N[C@@H](CCCNC(=N)N)C(=O)NCC(N)=O` [Compound 25, C18DA-gGlu3-Sar12-AEPipAc-Tyr-Phe-NMeLeu-Nle-Arg-Pro-Arg-Gly-NH2] showed a Ki (human NMUR1 receptor) of over 10000 nM and an EC50 (human NMUR2 receptor) of 1.1 nM.
